# Like-named read-outs stand apart in the source and are kept apart here.
# Assays:
# [1] = UV-visible absorption and fluorescence spectroscopic analyses in solvents; assay type: physicochemical; conditions: for Q.Y.: reference quinine sulfate in 0.1 M H2SO4; for Q.Y. (Φ), range over solvents: in CH2Cl2, THF, MeOH, or H2O
# Experimental: We evaluated the fluorescence properties of PPARγ ligands 2 and 6 (Figure 4) by measuring the fluorescence spectra and quantum yields (Q.Y.) in CH2Cl2, THF, MeOH, or H2O. […] The dielectric constant of each solvent was THF: 7.4, CH2Cl2: 8.9, MeOH: 32.6, and H2O: 78.5 [41, 42].
# Stock solutions of model coumarin compounds PPAR ligands 1, 2, and 6 were prepared in DMSO, and stored in the dark at −20 °C. The stock solutions were diluted (2 μM) with solvents (CH2Cl2, THF, MeOH, and H2O) and then the UV-visible absorption and fluorescence signals were measured by a spectrometer. The fluorescence quantum yields of coumarin analogues were calculated using quinine sulfate (Φ = 0.577 in 0.1 M H2SO4) as a reference standard.
# [2] = biological target: T1, hPPARγ-LBD (Homo sapiens, UniProt P37231); assay: Kd determination by fluorescence intensity at 410 nm on adding hPPARγ-LBD; assay type: binding; conditions: probe 1 μM, Ex 367 nm, Tris–HCl buffer
# T1 construct: The human PPARγ-LBD (residues 204−477) was expressed; 6×His (TEV-cleavable) (N, cleaved yes); made in house; host or cells: E. coli Rosetta (DE3)
# T1 sequence (P37231 204-477 isoform P37231-2): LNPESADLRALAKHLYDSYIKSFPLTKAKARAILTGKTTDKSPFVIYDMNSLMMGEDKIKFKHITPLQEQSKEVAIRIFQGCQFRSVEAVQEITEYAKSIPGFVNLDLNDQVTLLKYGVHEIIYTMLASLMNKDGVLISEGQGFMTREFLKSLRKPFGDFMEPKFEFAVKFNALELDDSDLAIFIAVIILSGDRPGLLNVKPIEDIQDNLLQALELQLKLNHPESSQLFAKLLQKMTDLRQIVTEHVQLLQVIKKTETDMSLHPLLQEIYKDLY
# Experimental: We examined whether 2 and 6 were useful for PPARγ binding assays. […] The fluorescence spectra were measured by adding hPPARγ-LBD (0.05 to 8.0 μM) in Tris–HCl buffer to 2 (1 μM) (Figure 7a). The fluorescence maxima shifted to shorter wavelength and the fluorescence intensity increased upon increasing the concentration of PPARγ-LBD.
# The assay buffer was measured as the background for fluorescence spectrum. […] The specific equilibrium binding constant (Kd) was derived using GraphPad Prism6 (Y = Bmax × X^h/(Kd^h + X^h) (X: concentration of PPARγ-LBD [nM], Y: fluorescence intensity at 410 nm, h: Hill slope).
# Figure 7 (a) Fluorescence spectra of 2 (1 µM) upon addition to hPPARγ-LBD (0.05–8.0 µM) in Tris–HCl buffer with Ex = 367 nm. (b) Fluorescence intensity of 2 at 410 nm depending on the concentration of hPPARγ-LBD. Data are mean ± SD (n = 3).
# [3] = biological target: T2, PPARγ (Homo sapiens, UniProt P37231); assay: Transactivation dual luciferase assay in COS-7 cells with GAL4-PPARγ chimera; assay type: cell-based; conditions: for EC50: PPARγ transcriptional activity; for Transcriptional activity (in words): compared with rosiglitazone
# T2 sequence (P37231 232-505 limits assumed): T1 sequence (P37231 204-477 isoform P37231-2)
# Experimental: Transactivation in COS-7 cells was measured using a dual luciferase assay according to a previously reported procedure. EC50s were calculated by GraphPad Prism 6 (GraphPad Software, San Diego, USA) (<A>LogEC = LogEC50Control <~A>LogEC = LogEC50Control + log(EC50Ratio) Y = Bottom + (Top-Bottom)/(1 + 10^((LogEC-X) × HillSlope))).
# The data represent the mean ± SD of three independent experiments.
# Biological experiments section
# COS-7 cells (RIKEN BRC) was cultured in Dulbecco’s Modified Eagle’s medium (DMEM) (Sigma-
# Aldrich) supplemented with 5% heat inactivated fetal bovine serum (FBS) (HyClone) and 1%
# penicillin-streptomycin (containing 10000 U/mL penicillin and 10000 µg/mL streptomycin; Nacalai
# [4] = tested on: PPARγ; parameters: method as in PMID 19053776; conditions: read-out: The reported EC50 value; cited from earlier work
# [5] = tested on: PPARγ; parameters: method as in PMID 17335769; conditions: read-out: The reported IC50 value; cited from earlier work
# [6] = tested on: PPARγ; parameters: method as in PMID 11698662; conditions: read-out: The reported EC50 value; cited from earlier work
SMILES,"Absmax ([1]; In CH2Cl2, 2 μM) [nm]","Emmax ([1]; In CH2Cl2, 2 μM) [nm]","Δ ([1]; In CH2Cl2, 2 μM) [nm]",Q.Y. ([1]; In CH2Cl2),"Absmax ([1]; In H2O, 2 μM) [nm]","Emmax ([1]; In H2O, 2 μM) [nm]","Δ ([1]; In H2O, 2 μM) [nm]",Q.Y. ([1]; In H2O),"Absmax ([1]; In MeOH, 2 μM) [nm]","Emmax ([1]; In MeOH, 2 μM) [nm]","Δ ([1]; In MeOH, 2 μM) [nm]",Q.Y. ([1]; In MeOH),"Absmax ([1]; In THF, 2 μM) [nm]","Emmax ([1]; In THF, 2 μM) [nm]","Δ ([1]; In THF, 2 μM) [nm]",Q.Y. ([1]; In THF),"Q.Y. (Φ), range over solvents [1]",Kd [2] [nM],EC50 [3] [nM],Transcriptional activity (in words) [3],further results
"CCN1C(=O)SC(Cc2ccc(OCCN(C)c3cc(=O)oc4cc(N(CC)CC)ccc34)cc2)C1=O (stereo not drawn) [Compound 6, 5-(4-(2-((7-(diethylamino)-2-oxo-2H-chromen-4-yl)(methyl)amino)ethoxy)benzyl)-3-ethylthiazolidine-2,4-dione]",359,423,64,0.764,369,461,92,0.0865,358,449,91,0.432,353,416,63,0.172,0.0865–0.764,4080 ± 712,350,partial agonistic activity,
"CCN(CC)c1ccc2c(N(C)CCOc3ccc(CC4SC(=O)NC4=O)cc3)cc(=O)oc2c1 (stereo not drawn) [Compound 2, 5-(4-(2-((7-(diethylamino)-2-oxo-2H-chromen-4-yl) (methyl)amino)ethoxy)benzyl)thiazolidine-2,4-dione]",359,423,64,0.541,364,462,98,0.143,359,449,90,0.532,354,416,62,0.191,0.143–0.541,1560 ± 93.6,34,comparable to rosiglitazone,
CN(CCOc1ccc(CC2SC(=O)NC2=O)cc1)c1ccccn1 (stereo not drawn) [Rosiglitazone],,,,,,,,,,,,,,,,,,,,,EC50 [4]: […]; IC50 [5]: […]; EC50 [6]: 18 ± 4 nM
COc1ccc2c(N(C)CCOc3ccc(CC4SC(=O)NC4=O)cc3)cc(=O)oc2c1 (stereo not drawn) [Compound 1],316,469,153,0.00359,312,451,139,0.00369,314,392,78,0.0039,314,467,153,0.00461,,,180,comparable to rosiglitazone,
